# Measured values published in PubChem BioAssay AID1963852 (Molecular Pharmacology Branch, DTP, NCI, 2024).
# System: 282377-053-R-J1-PDC complex spheroid viability
# Test: Anticancer human tumor 282377-053-R-J1-PDC patient-derived colon adenocarcinoma cell line growth inhibition [POLQ]
# Conditions: for IC50: curve of first compound; for viability, T/C: stronger effect = lower value
# How it was run: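 PDC + HUVEC + MSC complex spheroids; POLQ inhibitors ± partner drugs; top conc. at/near clinical Cmax, else 10 microM (SN-38 1 microM), half-log dilutions; 37 degrees C, 5% CO2.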
# [1] = second compound 0.0316 µM, first compound 0.0316 µM
# [2] = second compound 0.0316 µM, first compound 0.1 µM
# [3] = second compound 0.0316 µM, first compound 0.316 µM
# [4] = second compound 0.0316 µM, first compound 1 µM
# [5] = second compound 0.0316 µM, first compound 3.16 µM
# [6] = second compound 0.0316 µM, first compound 10 µM
# [7] = second compound 0.1 µM, first compound 0.0316 µM
# [8] = second compound 0.1 µM, first compound 0.1 µM
# [9] = second compound 0.1 µM, first compound 0.316 µM
# [10] = second compound 0.1 µM, first compound 1 µM
# [11] = second compound 0.1 µM, first compound 3.16 µM
# [12] = second compound 0.1 µM, first compound 10 µM
# [13] = second compound 0.316 µM, first compound 0.0316 µM
# [14] = second compound 0.316 µM, first compound 0.1 µM
# [15] = second compound 0.316 µM, first compound 0.316 µM
# [16] = second compound 0.316 µM, first compound 1 µM
# [17] = second compound 0.316 µM, first compound 3.16 µM
# [18] = second compound 0.316 µM, first compound 10 µM
# [19] = second compound 1 µM, first compound 0.0316 µM
# [20] = second compound 1 µM, first compound 0.1 µM
# [21] = second compound 1 µM, first compound 0.316 µM
# [22] = second compound 1 µM, first compound 1 µM
# [23] = second compound 1 µM, first compound 3.16 µM
# [24] = second compound 1 µM, first compound 10 µM
# [25] = second compound 3.16 µM, first compound 0.0316 µM
# [26] = second compound 3.16 µM, first compound 0.1 µM
# [27] = second compound 3.16 µM, first compound 0.316 µM
# [28] = second compound 3.16 µM, first compound 1 µM
# [29] = second compound 3.16 µM, first compound 3.16 µM
# [30] = second compound 3.16 µM, first compound 10 µM
# [31] = second compound 10 µM, first compound 0.0316 µM
# [32] = second compound 10 µM, first compound 0.1 µM
# [33] = second compound 10 µM, first compound 0.316 µM
# [34] = second compound 10 µM, first compound 1 µM
# [35] = second compound 10 µM, first compound 3.16 µM
# [36] = second compound 10 µM, first compound 10 µM
# 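Note: spheroids exposed to compounds for seven days.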
# 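Throughout, for viability, T/C: 100% = DMSO vehicle control viability.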
smiles,measurement,setting,value
C=CC(=O)N1CCN(c2nc(=O)n(-c3c(C)ccnc3C(C)C)c3nc(-c4c(O)cccc4F)c(F)cc23)C(C)C1 (stereo unspecified) + Cc1cccc(N(C)C(=O)C2C(O)CCN2c2nc(C)cc(C(F)(F)F)c2C#N)c1,IC50,second compound 0.0316 µM,> 10 µM
same,IC50,second compound 0.1 µM,> 10 µM
same,IC50,second compound 0.316 µM,> 10 µM
same,IC50,second compound 1 µM,> 10 µM
same,IC50,second compound 3.16 µM,> 10 µM
same,IC50,second compound 10 µM,> 10 µM
same,"viability, T/C",[1],94.8%
same,"viability, T/C",[2],84.6%
same,"viability, T/C",[3],119%
same,"viability, T/C",[4],89.3%
same,"viability, T/C",[5],97.3%
same,"viability, T/C",[6],80.5%
same,"viability, T/C",[7],102%
same,"viability, T/C",[8],108%
same,"viability, T/C",[9],93.4%
same,"viability, T/C",[10],83.5%
same,"viability, T/C",[11],90.4%
same,"viability, T/C",[12],88.7%
same,"viability, T/C",[13],91.2%
same,"viability, T/C",[14],106%
same,"viability, T/C",[15],106%
same,"viability, T/C",[16],89.4%
same,"viability, T/C",[17],74.1%
same,"viability, T/C",[18],79.3%
same,"viability, T/C",[19],79.2%
same,"viability, T/C",[20],92.7%
same,"viability, T/C",[21],89%
same,"viability, T/C",[22],80.8%
same,"viability, T/C",[23],85.7%
same,"viability, T/C",[24],76.6%
same,"viability, T/C",[25],88.5%
same,"viability, T/C",[26],99%
same,"viability, T/C",[27],71.9%
same,"viability, T/C",[28],88.5%
same,"viability, T/C",[29],84%
same,"viability, T/C",[30],89.4%
same,"viability, T/C",[31],76.7%
same,"viability, T/C",[32],80.8%
same,"viability, T/C",[33],89.7%
same,"viability, T/C",[34],86.8%
same,"viability, T/C",[35],85.8%
same,"viability, T/C",[36],70.7%
COc1cc2cc(C(=O)CCC(=O)O)sc2cc1OC + Cc1cccc(N(C)C(=O)C2C(O)CCN2c2nc(C)cc(C(F)(F)F)c2C#N)c1,IC50,second compound 0.0316 µM,> 10 µM
same,IC50,second compound 0.1 µM,> 10 µM
same,IC50,second compound 0.316 µM,> 10 µM
same,IC50,second compound 1 µM,> 10 µM
same,IC50,second compound 3.16 µM,> 10 µM
same,IC50,second compound 10 µM,> 10 µM
same,"viability, T/C",[1],106%
same,"viability, T/C",[2],112%
same,"viability, T/C",[3],101%
same,"viability, T/C",[4],106%
same,"viability, T/C",[5],109%
same,"viability, T/C",[6],104%
same,"viability, T/C",[7],112%
same,"viability, T/C",[8],107%
same,"viability, T/C",[9],102%
same,"viability, T/C",[10],95.8%
same,"viability, T/C",[11],115%
same,"viability, T/C",[12],89.4%
same,"viability, T/C",[13],119%
same,"viability, T/C",[14],107%
same,"viability, T/C",[15],113%
same,"viability, T/C",[16],97%
same,"viability, T/C",[17],107%
same,"viability, T/C",[18],95.1%
same,"viability, T/C",[19],116%
same,"viability, T/C",[20],103%
same,"viability, T/C",[21],107%
same,"viability, T/C",[22],107%
same,"viability, T/C",[23],103%
same,"viability, T/C",[24],105%
same,"viability, T/C",[25],106%
same,"viability, T/C",[26],106%
same,"viability, T/C",[27],103%
same,"viability, T/C",[28],108%
same,"viability, T/C",[29],113%
same,"viability, T/C",[30],108%
same,"viability, T/C",[31],107%
same,"viability, T/C",[32],112%
same,"viability, T/C",[33],117%
same,"viability, T/C",[34],100%
same,"viability, T/C",[35],122%
same,"viability, T/C",[36],109%
CCc1c2c(nc3ccc(O)cc13)-c1cc3c(c(=O)n1C2)COC(=O)[C@]3(O)CC + Nc1ccc(C#CCN(C(=O)Cc2ncc(C(F)(F)F)cc2C(F)(F)F)c2ccc(F)cc2)nn1,IC50,second compound 0.0316 µM,> 1 µM
same,IC50,second compound 0.1 µM,0.945 µM
same,IC50,second compound 0.316 µM,0.808 µM
same,IC50,second compound 1 µM,> 1 µM
same,IC50,second compound 3.16 µM,> 1 µM
same,IC50,second compound 10 µM,0.86 µM
same,"viability, T/C","second compound 0.0316 µM, first compound 0.00316 µM",99.3%
same,"viability, T/C","second compound 0.0316 µM, first compound 0.01 µM",96.8%
same,"viability, T/C",[1],80.7%
same,"viability, T/C",[2],78.3%
same,"viability, T/C",[3],69.9%
same,"viability, T/C",[4],58.8%
same,"viability, T/C","second compound 0.1 µM, first compound 0.00316 µM",92%
same,"viability, T/C","second compound 0.1 µM, first compound 0.01 µM",84.3%
same,"viability, T/C",[7],86%
same,"viability, T/C",[8],72.8%
same,"viability, T/C",[9],62.9%
same,"viability, T/C",[10],49.4%
same,"viability, T/C","second compound 0.316 µM, first compound 0.00316 µM",101%
same,"viability, T/C","second compound 0.316 µM, first compound 0.01 µM",92.3%
same,"viability, T/C",[13],75.4%
same,"viability, T/C",[14],74.4%
same,"viability, T/C",[15],60.4%
same,"viability, T/C",[16],46.8%
same,"viability, T/C","second compound 1 µM, first compound 0.00316 µM",107%
same,"viability, T/C","second compound 1 µM, first compound 0.01 µM",91.7%
same,"viability, T/C",[19],99.8%
same,"viability, T/C",[20],66.9%
same,"viability, T/C",[21],61.8%
same,"viability, T/C",[22],51.6%
same,"viability, T/C","second compound 3.16 µM, first compound 0.00316 µM",108%
same,"viability, T/C","second compound 3.16 µM, first compound 0.01 µM",87.1%
same,"viability, T/C",[25],83.8%
same,"viability, T/C",[26],70.6%
same,"viability, T/C",[27],60.4%
same,"viability, T/C",[28],51.5%
same,"viability, T/C","second compound 10 µM, first compound 0.00316 µM",116%
same,"viability, T/C","second compound 10 µM, first compound 0.01 µM",127%
same,"viability, T/C",[31],97.1%
same,"viability, T/C",[32],80.3%
same,"viability, T/C",[33],64.3%
same,"viability, T/C",[34],46.4%
